# Laboratory results taken from article PMC8724251, “A Supramolecular Nanoparticle of Pemetrexed Improves the Anti-Tumor Effect by Inhibiting Mitochondrial Energy Metabolism” (Frontiers in Bioengineering and Biotechnology, 2021).
# Where two headings read alike, the source gives them in different places. Square brackets hold non-standard residues; d marks the D form. Ends that are not written are not given here. Peptide text beside a SMILES is read from it. * marks the point of attachment. ξ: configuration not given here. X1 = Nc1nc2[nH]cc(CCc3ccc(C(=O)*)cc3)c2c(=O)[nH]1; ξE = NC(CCC(=O)O)C(=O)O
# How the values were obtained:
# LLC cells [1] = assay: MTT viability assay, LLC cells
# Experimental: (§1) Lewis lung cancer (LLC) and A549 cells (100 µl) were plated at a concentration of 5 × 10^3 cells/well in a flat-bottomed 96-well plate on Day 0. […] Then, the culture medium was removed, and MTT (0.5 mg/ml) was added to each well and incubated for 4 h. The supernatant was discarded, and dimethyl sulfoxide (100 µl) was used to completely dissolve the crystals.
# A549 cells [2] = assay: MTT viability assay, A549 cells
# Experimental: as §1
# [3] = Body weight and serum TNFα, IL-6, ALT, AST in LLC tumor-bearing mice; assay type: in vivo, C57BL/6J mice; conditions: for mouse weight: i.v., monitored every 2 days
# Experimental: (§2) C57BL/6J mice were subcutaneously inoculated with Lewis lung tumors and then randomly divided into four groups (5 mice per group) when the tumor sizes were approximately 100 mm^3. Mice in Groups 1 and 2 received PBS and FFRGD gels through i.v. injections, while mice in Groups 3 and 4 were administered 20 mg/kg PEM and PEM-FFRGD nanoparticles by i.v. injection. Repeated injections were administered on Days 1 and 5. Tumor size and body weight were monitored every 2 days, and the tumor volume was calculated according to the following formula: tumor volume (V, mm^3) = (tumor width)^2 × (tumor length)/2.
# A549 cells [4] = assay: Live/dead assay (calcein-AM / EthD-1), A549 cells; assay type: cell-based; conditions: 12 μM, 72 h, calcein-AM/EthD-1, microscopy
# Experimental: (§3) LLC cells and A549 cells (5,000 cells/well) were plated in 96-well plates and cultured for 24 h. Then, the cells were cocultured with 6 and 12 µM PEM and PEM-FFRGD for 72 h, respectively. The cells were washed with PBS and stained with calcein-AM and ethidium homodimer-1 (EthD-1) for 15 min. Then, the cells were viewed under microscopy (TI-S, Nikon, United States).
# LLC cells [5] = assay: Live/dead assay (calcein-AM / EthD-1), LLC cells; assay type: cell-based; conditions: 6 μM, 72 h, calcein-AM/EthD-1, microscopy
# Experimental: as §3
# Lewis lung tumors = assay: In vivo antitumor efficacy in LLC tumor-bearing mice; parameters: species or system C57BL/6J mice; conditions: LLC subcutaneous tumors, i.v., 20 mg/kg, two injections, tumor volumes within 2 weeks, n = 5
# Experimental: as §2
# [6] = LLC tumor-bearing mice, i.v. 20 mg/kg, n = 5
Compound,cytotoxic activity toward LLC cells compared with PEM alone (LLC cells [1]),"cytotoxicity toward LLC cells, 24 h (LLC cells [1])","cytotoxicity toward LLC cells, 48 h (LLC cells [1])","cytotoxicity toward A549 cells, 24 h (A549 cells [2]; MTT, different concentrations, 24 h incubation)","cytotoxicity toward A549 cells, 48 h (A549 cells [2]; MTT, different concentrations, 48 h incubation, viability lower than with PEM)","cytotoxic activity toward A549 cells compared with PEM alone (A549 cells [2]; MTT, series of concentrations, 72 h)","serum level of ALT versus PBS and PEM alone [3, 6]","serum level of AST versus PBS and PEM alone [3, 6]","serum level of IL-6 versus PBS and PEM alone [3, 6]","serum level of TNFα versus PBS and PEM alone [3, 6]","systemic toxicity in mice ([3]; from body weight and serum TNFα, IL-6, ALT, AST)","cell killing in live/dead staining, A549 cells (A549 cells [4])","cell killing in live/dead staining, LLC cells (LLC cells [5])",tumor growth (Lewis lung tumors),"cytotoxicity toward A549 cells, 24 h (A549 cells [2])","mouse weight ([3]; LLC tumor-bearing mice, n = 5)","cell toxicity at 100 μM (LLC cells) (LLC cells [1]; MTT, 100 μM, 72 h)","cell toxicity at 100 μM (A549 cells) (A549 cells [2]; MTT, 100 μM, 72 h)"
N=C(N)NCCC[C@H](NC(=O)[C@H](Cc1ccccc1)NC(=O)[C@H](Cc1ccccc1)NC(=O)C(CCC(=O)O)NC(=O)c1ccc(CCc2c[nH]c3nc(N)[nH]c(=O)c23)cc1)C(=O)NCC(=O)N[C@@H](CC(=O)O)C(=O)O (some centres unmarked) [PEM-FFRGD] (X1-[ξE]FFRGD-OH),stronger cytotoxic activity,no cytotoxicity,showed cytotoxic activity,no cytotoxicity,showed cytotoxic activity,stronger cytotoxic activity,not different,not different,not different,not different,no systemic toxicity,–,–,–,–,–,–,–
"Nc1nc2[nH]cc(CCc3ccc(C(=O)N[C@@H](CCC(=O)O)C(=O)O)cc3)c2c(=O)[nH]1 [PEM, Pemetrexed]",–,no cytotoxicity,–,–,–,–,–,–,–,–,–,could kill most cells,could kill most cells,significantly inhibited,no cytotoxicity,no influence on mouse weight,–,–
"FFRGD [FFRGD, reference compound]",–,–,–,–,–,–,–,–,–,–,–,–,–,–,–,no influence on mouse weight,did not display any distinct cell toxicity,did not display any distinct cell toxicity
